Reference: ChEMBL document CHEMBL5465560, “Selectivity Literature for EUbOPEN Chemogenomic Library” (2024)

Assays:
[1] = molecular target: Casein kinase II subunit alpha (Homo sapiens, UniProt P68400); conditions: at 10 µM
[2] = molecular target: T1, Mitogen-activated protein kinase kinase kinase 3 (Homo sapiens) (UniProt Q99759); experiment: Selectivity interaction (ActivX KiNativ screen (kinase selectivity in THP-1 cell lysates)) EUB0000639a MAP3K3; assay type: subcellular; conditions: lysate, at 0.01 µM
T1 sequence (whole entry): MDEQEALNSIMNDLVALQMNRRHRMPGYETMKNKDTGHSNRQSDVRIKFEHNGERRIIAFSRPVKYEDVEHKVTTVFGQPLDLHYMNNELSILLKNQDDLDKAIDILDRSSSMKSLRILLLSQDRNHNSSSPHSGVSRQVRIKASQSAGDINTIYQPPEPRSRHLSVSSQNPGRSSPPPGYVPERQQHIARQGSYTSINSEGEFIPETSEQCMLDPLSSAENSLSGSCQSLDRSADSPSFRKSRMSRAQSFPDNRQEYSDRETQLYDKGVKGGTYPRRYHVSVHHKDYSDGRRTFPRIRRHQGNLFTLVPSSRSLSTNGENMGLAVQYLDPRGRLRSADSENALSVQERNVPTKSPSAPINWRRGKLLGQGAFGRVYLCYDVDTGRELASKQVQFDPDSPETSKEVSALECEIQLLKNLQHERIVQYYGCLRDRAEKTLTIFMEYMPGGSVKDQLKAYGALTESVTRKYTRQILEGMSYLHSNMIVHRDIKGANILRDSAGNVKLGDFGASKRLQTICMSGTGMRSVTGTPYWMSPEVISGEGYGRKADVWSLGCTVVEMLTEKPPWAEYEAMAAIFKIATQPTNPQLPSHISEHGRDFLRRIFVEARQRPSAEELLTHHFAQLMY

[3] = molecular target: Phosphatidylinositol 4-kinase beta (Homo sapiens, UniProt Q9UBF8); experiment: Selectivity interaction (ActivX KiNativ screen (kinase selectivity in THP-1 cell lysates)) EUB0000639a PI4KB; assay type: subcellular; conditions: lysate
Phosphatidylinositol 4-kinase beta, sequence (Q9UBF8 2-816 limits assumed): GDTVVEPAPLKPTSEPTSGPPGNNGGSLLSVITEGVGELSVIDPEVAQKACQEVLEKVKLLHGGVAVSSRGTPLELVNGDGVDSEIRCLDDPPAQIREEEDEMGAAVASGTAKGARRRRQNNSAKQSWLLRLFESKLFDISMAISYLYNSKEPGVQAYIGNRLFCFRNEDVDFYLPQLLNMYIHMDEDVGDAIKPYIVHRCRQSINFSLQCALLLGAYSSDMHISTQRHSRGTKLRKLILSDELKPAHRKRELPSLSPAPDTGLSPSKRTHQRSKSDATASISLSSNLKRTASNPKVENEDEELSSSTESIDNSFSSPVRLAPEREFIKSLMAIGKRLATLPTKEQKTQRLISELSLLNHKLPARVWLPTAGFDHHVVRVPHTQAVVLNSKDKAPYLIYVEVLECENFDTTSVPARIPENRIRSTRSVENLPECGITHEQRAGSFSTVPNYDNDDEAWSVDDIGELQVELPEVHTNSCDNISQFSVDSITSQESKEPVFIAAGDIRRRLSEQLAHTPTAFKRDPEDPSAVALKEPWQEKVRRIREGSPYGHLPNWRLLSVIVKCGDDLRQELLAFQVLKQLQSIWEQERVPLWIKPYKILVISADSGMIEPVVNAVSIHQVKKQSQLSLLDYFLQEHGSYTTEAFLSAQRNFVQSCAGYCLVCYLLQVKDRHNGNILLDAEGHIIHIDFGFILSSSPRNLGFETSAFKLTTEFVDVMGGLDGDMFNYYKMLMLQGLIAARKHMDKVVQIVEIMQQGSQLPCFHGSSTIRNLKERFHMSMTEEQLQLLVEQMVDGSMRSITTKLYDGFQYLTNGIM

[4] = molecular target: Serine/threonine-protein kinase SIK1 (Homo sapiens) (UniProt P57059); experiment: Selectivity interaction (KinomeScan (DiscoverX)) EUB0000695a SIK1; conditions: at 100 nM
Serine/threonine-protein kinase SIK1 (Homo sapiens), sequence (P57059 whole entry): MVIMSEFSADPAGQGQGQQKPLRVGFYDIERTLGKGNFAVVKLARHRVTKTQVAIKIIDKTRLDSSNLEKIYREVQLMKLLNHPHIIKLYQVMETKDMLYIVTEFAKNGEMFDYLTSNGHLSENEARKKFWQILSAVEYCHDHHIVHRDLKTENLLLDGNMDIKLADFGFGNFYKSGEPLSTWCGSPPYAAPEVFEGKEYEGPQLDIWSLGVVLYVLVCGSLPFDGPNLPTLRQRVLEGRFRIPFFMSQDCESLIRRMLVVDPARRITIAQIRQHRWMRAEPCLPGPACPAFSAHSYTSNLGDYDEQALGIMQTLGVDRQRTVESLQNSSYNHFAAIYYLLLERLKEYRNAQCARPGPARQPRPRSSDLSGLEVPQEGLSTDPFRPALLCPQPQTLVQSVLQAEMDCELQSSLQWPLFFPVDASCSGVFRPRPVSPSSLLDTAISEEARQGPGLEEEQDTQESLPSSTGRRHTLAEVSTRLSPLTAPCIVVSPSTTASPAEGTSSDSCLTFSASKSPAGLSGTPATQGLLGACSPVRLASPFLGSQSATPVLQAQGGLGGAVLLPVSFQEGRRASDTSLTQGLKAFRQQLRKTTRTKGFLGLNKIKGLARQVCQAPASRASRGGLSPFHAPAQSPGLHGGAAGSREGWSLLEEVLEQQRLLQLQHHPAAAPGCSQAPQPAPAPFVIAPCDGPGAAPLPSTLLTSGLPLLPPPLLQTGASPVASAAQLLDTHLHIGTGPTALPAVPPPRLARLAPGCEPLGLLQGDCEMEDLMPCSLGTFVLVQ

[5] = molecular target: Cyclin-dependent kinase 14 (Homo sapiens) (UniProt O94921); experiment: Selectivity interaction (KinomeScan (DiscoverX)) EUB0000695a CDK14; conditions: at 100 nM
Cyclin-dependent kinase 14 (Homo sapiens), sequence (O94921 whole entry): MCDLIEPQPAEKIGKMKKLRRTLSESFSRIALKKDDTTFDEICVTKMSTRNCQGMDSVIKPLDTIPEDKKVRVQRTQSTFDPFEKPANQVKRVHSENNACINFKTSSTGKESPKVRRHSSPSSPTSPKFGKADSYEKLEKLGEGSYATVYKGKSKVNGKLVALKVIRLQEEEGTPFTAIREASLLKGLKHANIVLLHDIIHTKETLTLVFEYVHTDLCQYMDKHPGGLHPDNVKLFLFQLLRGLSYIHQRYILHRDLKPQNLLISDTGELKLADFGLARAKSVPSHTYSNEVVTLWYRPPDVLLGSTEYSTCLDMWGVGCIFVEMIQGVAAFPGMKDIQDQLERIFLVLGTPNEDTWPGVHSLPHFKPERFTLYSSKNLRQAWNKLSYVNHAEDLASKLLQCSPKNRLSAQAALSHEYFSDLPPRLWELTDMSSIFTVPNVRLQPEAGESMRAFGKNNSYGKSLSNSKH

[6] = molecular target: T2, Membrane-associated tyrosine- and threonine-specific cdc2-inhibitory kinase (Homo sapiens) (UniProt Q99640); experiment: Selectivity interaction (KinomeScan (DiscoverX)) EUB0001049a PKMYT1; conditions: at 1 µM
T2 sequence (whole entry): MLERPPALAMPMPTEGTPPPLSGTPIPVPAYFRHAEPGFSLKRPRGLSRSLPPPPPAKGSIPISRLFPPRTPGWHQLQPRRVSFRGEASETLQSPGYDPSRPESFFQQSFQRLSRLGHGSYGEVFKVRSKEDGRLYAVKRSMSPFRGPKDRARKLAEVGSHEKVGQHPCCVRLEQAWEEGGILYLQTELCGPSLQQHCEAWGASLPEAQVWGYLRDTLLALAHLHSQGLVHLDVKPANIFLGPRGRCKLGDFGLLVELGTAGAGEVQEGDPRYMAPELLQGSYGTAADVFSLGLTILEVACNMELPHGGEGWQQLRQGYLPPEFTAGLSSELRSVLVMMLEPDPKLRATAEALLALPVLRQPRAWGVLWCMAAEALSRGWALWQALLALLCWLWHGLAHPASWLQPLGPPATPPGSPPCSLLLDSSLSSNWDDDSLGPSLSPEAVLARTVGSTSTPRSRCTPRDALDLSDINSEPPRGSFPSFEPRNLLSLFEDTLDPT

[7] = molecular target: T3, Serine/threonine-protein kinase tousled-like 1 (Homo sapiens) (UniProt Q9UKI8); experiment: Selectivity interaction (Ambit KINOMEscan and KiNATiv profiling in Jurkat cells) EUB0000090b TLK1; assay type: cell-based; conditions: at 1 µM
T3 sequence (whole entry): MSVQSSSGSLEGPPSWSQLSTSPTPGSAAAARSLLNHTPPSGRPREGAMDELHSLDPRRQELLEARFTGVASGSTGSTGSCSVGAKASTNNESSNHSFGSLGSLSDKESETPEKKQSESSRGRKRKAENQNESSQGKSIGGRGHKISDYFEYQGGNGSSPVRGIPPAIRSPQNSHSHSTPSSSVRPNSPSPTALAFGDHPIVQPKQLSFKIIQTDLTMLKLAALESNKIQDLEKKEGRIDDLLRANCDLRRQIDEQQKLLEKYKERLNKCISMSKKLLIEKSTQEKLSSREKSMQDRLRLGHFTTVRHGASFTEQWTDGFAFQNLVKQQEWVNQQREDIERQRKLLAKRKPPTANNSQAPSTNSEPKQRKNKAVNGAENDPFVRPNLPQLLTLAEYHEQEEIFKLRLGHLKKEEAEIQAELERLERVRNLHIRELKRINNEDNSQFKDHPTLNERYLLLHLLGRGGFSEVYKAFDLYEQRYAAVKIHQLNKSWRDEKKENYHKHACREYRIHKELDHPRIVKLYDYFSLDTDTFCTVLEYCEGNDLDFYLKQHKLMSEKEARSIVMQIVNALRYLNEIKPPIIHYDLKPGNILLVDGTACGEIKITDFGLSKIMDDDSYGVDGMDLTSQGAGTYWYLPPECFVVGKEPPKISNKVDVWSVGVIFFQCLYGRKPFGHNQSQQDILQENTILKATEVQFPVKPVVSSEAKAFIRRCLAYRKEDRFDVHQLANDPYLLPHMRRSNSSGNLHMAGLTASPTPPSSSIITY

[8] = molecular target: Leukocyte tyrosine kinase receptor (Homo sapiens, UniProt P29376); experiment: Selectivity interaction (KinomeScan (DiscoverX)) EUB0000045b LTK
Leukocyte tyrosine kinase receptor, sequence (P29376 whole entry): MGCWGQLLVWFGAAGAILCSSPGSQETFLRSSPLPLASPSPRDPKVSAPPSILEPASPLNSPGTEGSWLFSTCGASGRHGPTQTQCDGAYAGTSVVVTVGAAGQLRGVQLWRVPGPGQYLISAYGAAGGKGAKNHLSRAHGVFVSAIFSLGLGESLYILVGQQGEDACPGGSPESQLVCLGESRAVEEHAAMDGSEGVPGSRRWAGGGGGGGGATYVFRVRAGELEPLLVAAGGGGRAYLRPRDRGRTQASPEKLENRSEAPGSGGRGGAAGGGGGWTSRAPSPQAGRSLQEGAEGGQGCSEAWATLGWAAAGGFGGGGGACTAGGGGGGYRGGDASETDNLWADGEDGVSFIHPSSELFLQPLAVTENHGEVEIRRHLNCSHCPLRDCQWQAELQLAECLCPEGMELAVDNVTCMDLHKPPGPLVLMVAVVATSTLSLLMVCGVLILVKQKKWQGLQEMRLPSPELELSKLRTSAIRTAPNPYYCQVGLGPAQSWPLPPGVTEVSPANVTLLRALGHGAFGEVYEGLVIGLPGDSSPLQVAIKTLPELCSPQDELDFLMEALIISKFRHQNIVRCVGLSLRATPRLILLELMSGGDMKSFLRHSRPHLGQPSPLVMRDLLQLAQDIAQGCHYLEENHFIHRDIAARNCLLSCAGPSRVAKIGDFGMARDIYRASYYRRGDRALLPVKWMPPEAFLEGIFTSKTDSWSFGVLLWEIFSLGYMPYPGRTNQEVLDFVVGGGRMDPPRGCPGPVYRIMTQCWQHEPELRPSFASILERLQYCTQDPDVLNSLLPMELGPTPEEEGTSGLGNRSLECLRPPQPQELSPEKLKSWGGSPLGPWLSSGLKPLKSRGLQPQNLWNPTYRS

[9] = molecular target: Tyrosine-protein kinase FRK (Homo sapiens) (UniProt P42685); experiment: Selectivity interaction (KinomeScan (DiscoverX)) EUB0001079a FRK; conditions: at 1 µM
[10] = molecular target: Fibroblast growth factor receptor 3 (Homo sapiens, UniProt P22607); experiment: (§1) Selectivity interaction (KinomeScan (DiscoverX)) EUB0000229b FGFR3; conditions: at 10 µM
Fibroblast growth factor receptor 3, sequence (P22607 23-806 limits assumed): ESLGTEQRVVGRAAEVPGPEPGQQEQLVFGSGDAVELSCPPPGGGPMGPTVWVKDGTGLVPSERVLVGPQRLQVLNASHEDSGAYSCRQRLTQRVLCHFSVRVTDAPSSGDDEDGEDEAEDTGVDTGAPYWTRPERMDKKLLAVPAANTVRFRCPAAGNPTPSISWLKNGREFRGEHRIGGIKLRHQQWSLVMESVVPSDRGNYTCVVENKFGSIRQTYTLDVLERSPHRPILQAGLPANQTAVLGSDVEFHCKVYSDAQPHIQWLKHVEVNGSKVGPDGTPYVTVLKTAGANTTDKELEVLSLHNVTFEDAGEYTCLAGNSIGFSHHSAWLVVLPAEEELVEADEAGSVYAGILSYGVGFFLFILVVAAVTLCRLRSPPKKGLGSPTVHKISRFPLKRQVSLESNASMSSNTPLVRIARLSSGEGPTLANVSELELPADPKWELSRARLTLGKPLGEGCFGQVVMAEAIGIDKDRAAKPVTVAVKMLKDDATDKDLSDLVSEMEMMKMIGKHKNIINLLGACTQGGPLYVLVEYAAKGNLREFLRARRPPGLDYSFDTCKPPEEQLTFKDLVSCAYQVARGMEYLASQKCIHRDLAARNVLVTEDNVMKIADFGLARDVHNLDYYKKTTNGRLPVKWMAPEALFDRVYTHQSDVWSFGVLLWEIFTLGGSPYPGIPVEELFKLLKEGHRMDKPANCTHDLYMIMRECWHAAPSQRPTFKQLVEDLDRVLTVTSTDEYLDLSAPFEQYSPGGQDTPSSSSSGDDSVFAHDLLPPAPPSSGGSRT

[11] = test system: Fibroblast growth factor receptor 3 (Homo sapiens), P22607 [G697C]; experiment: as §1; conditions: at 1 µM
[12] = molecular target: Mitogen-activated protein kinase kinase kinase 1 (Homo sapiens, UniProt Q13233); experiment: Selectivity interaction (KinomeScan (DiscoverX)) EUB0000092b MAP3K1; conditions: at 10 µM
[13] = molecular target: Serine/threonine-protein kinase 10 (Homo sapiens) (UniProt O94804); experiment: Selectivity interaction (ActivX KiNativ screen (ex vivo kinase selectivity in human PBMCs)) EUB0001619a STK10; assay type: cell-based; conditions: PBMC, at 1 µM
Serine/threonine-protein kinase 10 (Homo sapiens), sequence (O94804 whole entry, looked up): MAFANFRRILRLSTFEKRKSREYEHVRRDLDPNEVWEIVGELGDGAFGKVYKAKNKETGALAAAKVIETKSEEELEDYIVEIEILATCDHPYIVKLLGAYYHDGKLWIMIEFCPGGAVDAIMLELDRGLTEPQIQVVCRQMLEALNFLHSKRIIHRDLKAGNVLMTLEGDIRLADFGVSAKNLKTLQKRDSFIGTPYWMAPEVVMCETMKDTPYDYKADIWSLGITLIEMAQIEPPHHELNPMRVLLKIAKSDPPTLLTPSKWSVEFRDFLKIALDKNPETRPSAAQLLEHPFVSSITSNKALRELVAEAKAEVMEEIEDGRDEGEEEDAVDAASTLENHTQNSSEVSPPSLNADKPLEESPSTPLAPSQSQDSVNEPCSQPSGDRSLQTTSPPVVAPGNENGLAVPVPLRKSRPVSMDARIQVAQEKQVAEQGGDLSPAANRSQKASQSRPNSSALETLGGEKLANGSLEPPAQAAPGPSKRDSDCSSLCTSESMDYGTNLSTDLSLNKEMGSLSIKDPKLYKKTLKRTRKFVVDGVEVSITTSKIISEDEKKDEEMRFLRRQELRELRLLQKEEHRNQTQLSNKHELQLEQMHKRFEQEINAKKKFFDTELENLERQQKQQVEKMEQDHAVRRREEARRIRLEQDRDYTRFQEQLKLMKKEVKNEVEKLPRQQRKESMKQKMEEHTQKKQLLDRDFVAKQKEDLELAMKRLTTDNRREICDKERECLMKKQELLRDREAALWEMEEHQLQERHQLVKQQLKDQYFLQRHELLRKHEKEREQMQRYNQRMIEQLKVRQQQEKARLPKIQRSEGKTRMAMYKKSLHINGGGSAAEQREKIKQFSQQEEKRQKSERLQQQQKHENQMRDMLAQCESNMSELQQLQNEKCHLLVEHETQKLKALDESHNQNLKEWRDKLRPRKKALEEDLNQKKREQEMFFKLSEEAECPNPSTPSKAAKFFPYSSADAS

Casein kinase II subunit alpha, sequence (P68400 whole entry, looked up): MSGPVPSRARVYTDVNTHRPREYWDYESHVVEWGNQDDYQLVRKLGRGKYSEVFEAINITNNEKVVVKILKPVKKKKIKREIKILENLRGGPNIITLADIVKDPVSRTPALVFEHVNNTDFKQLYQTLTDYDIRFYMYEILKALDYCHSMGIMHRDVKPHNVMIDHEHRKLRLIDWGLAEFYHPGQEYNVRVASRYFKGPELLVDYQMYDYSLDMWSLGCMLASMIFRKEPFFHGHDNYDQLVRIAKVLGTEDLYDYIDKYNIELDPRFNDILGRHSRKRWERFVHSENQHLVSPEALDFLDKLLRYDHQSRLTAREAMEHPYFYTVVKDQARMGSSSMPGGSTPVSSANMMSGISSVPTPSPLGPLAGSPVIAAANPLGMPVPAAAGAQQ

CCN(CC)CCCCNc1ncc2cc(-c3cc(OC)cc(OC)c3)c(NC(=O)NC(C)(C)C)nc2n1
% of control [1]: 100%

CC[C@@H]1[C@H](F)C(=O)N[C@@H]1COc1nccc2cc(C(N)=O)c(OC)cc12 [ZIMLOVISERTIB]
% of inhibition [2]: -6.1% | % of inhibition ([3]; at 0.01 µM): -20.4% | % of inhibition ([3]; at 0.04 µM): 12.3% | % of inhibition ([3]; at 0.2 µM): 15.1% | % of inhibition ([3]; at 1 µM): 7.7% | % of inhibition ([3]; at 5 µM): -1.3%

Cc1cc(F)c(C(=O)Nc2cccc(-c3nncn3C(C)C)n2)cc1-n1cnc(C2CC2)c1
% of control [4]: 94% | % of control [5]: 49%

COc1cc(Nc2nc(C)cc(-c3cnn4nc(OC)ccc34)n2)cc(C(F)(F)F)c1
% of control [6]: 97%

CN(C)C/C=C/C(=O)Nc1ccc(C(=O)N2CCCC(Nc3ncc(Cl)c(-c4c[nH]c5ccccc45)n3)C2)cc1 (stereo not drawn)
% of control [7]: 92%

C=CC(=O)Nc1cc(-n2c(=O)ccc3cnc4ccc(-c5ccc(NS(C)(=O)=O)cc5)cc4c32)ccc1C
% of control ([8]; at 1 µM): 100% | % of control ([8]; at 10 µM): 100%

Nc1cnc(N2CCc3cc(S(=O)(=O)Nc4c(F)cc(Cl)cc4F)cc(N4CCCC4=O)c32)nc1 [TP-020n]
% of control [9]: 62%

COc1cc(N(C)c2ccnc3ccc(C(F)(F)F)cc23)cc(OC)c1OC
% binding [10]: 100% | % binding [11]: 90%

CCC(=O)N1CCN(c2ccc(-n3c(=O)ccc4cnc5ccc(-c6cnc7ccccc7c6)cc5c43)cc2C(F)(F)F)CC1
% of control [12]: 92%

N#Cc1cccc(-c2c[nH]c3ncnc(N4CCOCC4)c23)c1
% of inhibition [13]: 79%
